Source: patent US10087399B2, “Use of alkoxylated non-ionic surfactants as additive in aqueous membrane cleaning compositions” (BASF SE, priority 2012, dated 2018)

Key:
[1] = test system: Cobetia marina (DSMZ4741) bacterial fouling layer; assay: Cleaning of bacterial fouling layer on PA, fluorescence spectroscopy (DAPI / Concanavalin A); assay type: cell-based
Protocol: Bacterial Strain and Growth Conditions
To generate bacterial fouling layers, the marine bacterium Cobetia marina (DSMZ4741) was used in this study. The strain was purchased from the DSMZ culture collections, Germany. Sea Salt Peptone (SSP, all ingredients purchased from Sigma-Aldrich) (sea salt 20 g; peptone 18 g; deionised water 1,000 ml, pH 7.8) was used as the growth medium. The culture stock was maintained on Sea Salt Peptone Agar (SSPA, all ingredients purchased from Sigma-Aldrich) slants (sea salt 20 g; peptone 18 g; agar 30 g; deionised water 1,000 ml, pH 7.8). Prior to the experiments, the culture was grown in the SSP medium on a rotary shaker at 180 rpm at 28° C. for 20-22 h in order to obtain cells in the logphase.
Preparation of Bacterial Fouling Layers
The polyamid thin film substrates prepared on glass slides were conditioned for 24 h in artificial seawater (sea salt 20 g; deionised water 1,000 ml, pH 7.8) before being transferred to the bacterial cell suspensions. A freshly grown (logphase) bacterial suspension was prepared with an absorbance of 0.2 at a wavelength of 600 nm (DU 800, Beckman Coulter, Krefeld, Germany). The conditioned replicate slides (four for each assay) were placed into individual compartments of quadric petri dishes and 5 ml of the bacterial suspension was added thereby fully immersing the slides. The plates were placed in an incubator at 28° C. on a rotary shaker (90 rpm). After 1 h of incubation, the slides were transferred into new quadric petri dishes containing 5 ml of fresh SSP medium. The plates were incubated for another 4 h at 28° C. on a rotary shaker (90 rpm) for the attached bacteria to proliferate on the surface of the slides. At the end of the incubation, the slides were gently rinsed in artificial seawater to remove any non-adherent cells.
Cleaning Experiments with Bacterial Fouling Layers
Similar to the experiments using the multi-component molecular fouling layers, selected cleaning conditions (pH 12) and agents were tested for their ability to remove bacterial cells and EPS matrix. Additionally, the cleaning potential of the protease subtilisin (Subtilisin A type VIII from Bacillus licheniformis, 12 U/mg, Sigma-Aldrich) and methylglycine diacetic acid, sodium salt ([…], BASF SE) applied alone or in combination with the surfactant 2-propylheptanol, 6 EO, 1 PO (Lutensol⋅ XL 60, BASF SE) was evaluated. For that, the enzyme (100 μg/ml) and/or chelating agent (active concentration of 0.2%) and/or the surfactant (active concentration of 0.025%) were dissolved in 10 mM NaH2PO4 buffer (Sigma-Aldrich, pH 8.1). The bacterial fouling layers were immersed in the particular cleaning solution for 10 min at room temperature followed by rinsing in deionised water. After that, they were immediately fixed.
For fluorescence microscopy/spectroscopy and atomic force microscopy, bacterial fouling layers were fixed by transferring the respective slides into quadric petri dishes containing 4% paraformaldehyde (Sigma-Aldrich). After incubation for 15 min, the layers were rinsed with deionised water and dried by nitrogen.
For fluorescence staining, the slides were placed into custom-made incubation chambers in order to avoid backside staining. To stain the EPS matrix, Alexa 488-conjugated Concanavalin A (Molecular Probes, distributed by Invitrogen, Netherlands) dissolved in 0.1 M sodium bicarbonate (SigmaAldrich) buffer (pH 8.3) was added for 1 h in the dark (25 μg/cm^2). After incubation, the solution was removed and samples were washed with phosphate buffered saline (PBS, Sigma-Aldrich) twice. For staining of bacterial cells, DAPI solution (dissolved in PBS) was applied to Concanavalin A-stained samples for 5 min in the dark (25 μg/cm^2). After removal of the solution, the layers were washed with deionised water twice. Samples were taken out of the incubation chambers and dried by nitrogen.
Quantification of Cleaning Efficiency by Fluorescence Spectroscopy […]

[2] = Dynamic contact angle on PES; assay type: physicochemical; conditions: 0.2 g/l aqueous, 23° C.
Protocol: (§1) Determination of the Dynamic Contact Angle
(§2) The dynamic contact angle was measured with a video based high velocity measuring instrument for contact angle determination of the type OCAH 200 of the company Dataphysics Instruments 5 GmbH, Raiffeisenstr. 34, Fildersstadt, on the spin-coated glass slides.
(§3) The surfactants according to the invention listed in Tables […] used in an aqueous solution at a concentration of 0.2 g/l.
(§4) The contact angel is constantly determined (60 times per second) at 23° C. during 10 seconds after application. Under these conditions the contact angel of water without added surfactant remains at approximately at 65°. The contact angle on PA of the aqueous solutions of the branched tridecylethoxylates drops to 10° to 33°. The contact angle on PES of the aqueous solutions of the branched tridecylethoxylates drops to 17° to 37°. A contact angle after 10 seconds below 30° is preferred.

[3] = Dynamic contact angle on PA; assay type: physicochemical; conditions: 0.2 g/l aqueous, 23° C.
Protocol: as §1, §2, §3, §4

[4] = 10 mM NaH2PO4 buffer pH 8.1, surfactant 0.025%, chelating agent 0.2%, enzyme 100 μg/ml, 10 min

linear alkylbenzenesulfonate, sodium salt [Nr 41, reference compound]
Cleaning Performance, Cells (DAPI) ([1]; 0.025%, pH 12, 10 min): 35,9%
Cleaning Performance, Matrix (Concanavalin A) ([1]; 0.025%, pH 12, 10 min): 10,8%

branched C13—OH, 7 EO [Nr 4]
Contact angle at 0.1 s ([2]; 0.1 s): 45.0°
Contact angle at 1 s ([2]; 1.0 s): 34.8°
Contact angle at 10 s ([2]; 10.0 s): 17.9°
Contact angle at 0.1 s ([3]; 0.1 s): 48.2 °
Contact angle at 1 s ([3]; 1.0 s): 32.3 °
Contact angle at 10 s ([3]; 10.0 s): 10.5 °

2-Propylheptanol, 6 EO [Nr 22]
Cleaning Performance, Cells (DAPI) ([1]; 0.025%, pH 12, 10 min): 25,1%
Cleaning Performance, Matrix (Concanavalin A) ([1]; 0.025%, pH 12, 10 min): 0,2%

2-Propylheptanol, 6 EO, 1 PO [Nr 18]
Cleaning Performance, Cells (DAPI) [1, 4]: 31,8%
Cleaning Performance, Matrix (Concanavalin A) [1, 4]: 16,5%
Cleaning Performance, Cells (DAPI) ([1]; 0.025%, pH 12, 10 min): 51,7%
Cleaning Performance, Matrix (Concanavalin A) ([1]; 0.025%, pH 12, 10 min): 9,6%

CC(C(=O)[O-])N(CC(=O)[O-])CC(=O)[O-].[Na+].[Na+].[Na+] (stereo not shown) [Methylglycine diacetic acid, sodium salt, reference compound]
Cleaning Performance, Cells (DAPI) [1, 4]: 47,7%
Cleaning Performance, Matrix (Concanavalin A) [1, 4]: 42,5%
Cleaning Performance, Cells (DAPI) ([1]; 0.025%, pH 12, 10 min): 73,5%
Cleaning Performance, Matrix (Concanavalin A) ([1]; 0.025%, pH 12, 10 min): 42,5%

2-Propylheptanol, 6 EO, 5 PO [Nr 38]
Cleaning Performance, Cells (DAPI) ([1]; 0.025%, pH 12, 10 min): 52,8%
Cleaning Performance, Matrix (Concanavalin A) ([1]; 0.025%, pH 12, 10 min): 15,2%

B1: Subtilisin: protease subtilisin (Subtilisin A type VIII from Bacillus licheniformis, 12 U/mg, Sigma-Aldrich) (protein, UniProt P00780 106-379, looked up)
Subtilisin Carlsberg: AQTVPYGIPLIKADKVQAQGFKGANVKVAVLDTGIQASHPDLNVVGGASFVAGEAYNTDGNGHGTHVAGTVAALDNTTGVLGVAPSVSLYAVKVLNSSGSGSYSGIVSGIEWATTNGMDVINMSLGGASGSTAMKQAVDNAYAKGVVVVAAAGNSGSSGNTNTIGYPAKYDSVIAVGAVDSNSNRASFSSVGAELEVMAPGAGVYSTYPTNTYATLNGTSMASPHVAGAAALILSKHPNLSASQVRNRLSSTATYLGSSFYYGKGLINVEAAAQ
Cleaning Performance, Cells (DAPI) [1, 4]: 17,8%
Cleaning Performance, Matrix (Concanavalin A) [1, 4]: 10,5%
